Source: patent publication US11891415B2, “Depsipeptides and uses thereof” (NovoBiotic Pharmaceuticals, LLC, priority 2017, dated 2024)

Experiments:
S. aureus ATCC 33591 = assay: Neutropenic mouse thigh infection model; assay type: in vivo; conditions: single dose of 50 mg/kg, thigh load at 26 hours
Protocol: The compound of Formula (III) was next evaluated in a neutropenic mouse thigh infection model against S. aureus ATCC 33591. For the study, mice challenged with S. aureus ATCC 33591 were intravenously administered two 5 mg/kg, 10 mg/kg, 20 mg/kg and 30 mg/kg doses of the compound of Formula (III) at 2 and 4 hours post-infection, or vancomycin as a single dose of 50 mg/kg as a control. The bacterial load in the thigh at 26 hours post-infection was measured.

MRSA ATCC 33591 = assay: Mouse septicemia model; conditions: CD-1 female mice, MRSA ATCC 33591, 2.5 mg/kg intravenous one hour post infection

CN[C@H](CC(C)C)C(=O)N[C@H]1C(=O)N[C@@H](CC(N)=O)C(=O)N[C@H]2C(=O)N[C@H]3C(=O)N[C@H](C(=O)N[C@H](C(=O)O)c4cc(O)cc(O)c4-c4cc3ccc4O)[C@H](O)c3ccc(c(Cl)c3)Oc3cc2cc(c3O[C@@H]2O[C@H](CO)[C@@H](O)[C@H](O)[C@H]2O[C@H]2C[C@](C)(N)[C@H](O)[C@H](C)O2)Oc2ccc(cc2Cl)[C@H]1O [vancomycin]
CFU reduction from the 2 hour infection controls (S. aureus ATCC 33591): 0.54 log10 CFU | CFU reduction from the 26 hour infection controls (S. aureus ATCC 33591): 3.65 log10 CFU | survival (MRSA ATCC 33591): all survived
